Test results published in ChEMBL document CHEMBL5634092, “Design, synthesis, and biological evaluation of novel HDAC/CD13 dual inhibitors for the treatment of cancer” (Eur J Med Chem, 2023).

Columns and labels:
Histone deacetylase 3 = Histone deacetylase 3 (Homo sapiens, UniProt O15379); test: Inhibition of human HDAC3 using Boc-Lys (acetyl)-AMC as substrate incubated for 1 hr followed by substrate addition and further incubated for 2 hrs by fluorescence assay
Histone deacetylase 11 = molecular target: T1, Histone deacetylase 11 (Homo sapiens, UniProt Q96DB2); test: Inhibition of human HDAC11 using Boc-Lys (tri-fluoroacetyl)-AMC as substrate incubated for 1 hr followed by substrate addition and further incubated for 2 hrs by fluorescence assay
T1 sequence (Q96DB2 whole entry): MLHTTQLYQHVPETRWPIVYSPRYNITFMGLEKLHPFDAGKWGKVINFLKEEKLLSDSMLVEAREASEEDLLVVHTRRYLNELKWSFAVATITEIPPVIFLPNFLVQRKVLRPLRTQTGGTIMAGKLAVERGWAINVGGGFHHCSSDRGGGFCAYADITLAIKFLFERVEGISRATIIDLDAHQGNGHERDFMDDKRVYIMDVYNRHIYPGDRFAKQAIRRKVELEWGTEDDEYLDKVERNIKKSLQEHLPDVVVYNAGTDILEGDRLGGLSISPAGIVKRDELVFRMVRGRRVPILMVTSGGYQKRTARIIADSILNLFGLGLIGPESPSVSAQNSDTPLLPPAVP

Histone deacetylase 7 = molecular target: T2, Histone deacetylase 7 (Homo sapiens, UniProt Q8WUI4); test: Inhibition of human HDAC7 using Boc-Lys (tri-fluoroacetyl)-AMC as substrate incubated for 1 hr followed by substrate addition and further incubated for 2 hrs by fluorescence assay
T2 sequence (Q8WUI4 whole entry): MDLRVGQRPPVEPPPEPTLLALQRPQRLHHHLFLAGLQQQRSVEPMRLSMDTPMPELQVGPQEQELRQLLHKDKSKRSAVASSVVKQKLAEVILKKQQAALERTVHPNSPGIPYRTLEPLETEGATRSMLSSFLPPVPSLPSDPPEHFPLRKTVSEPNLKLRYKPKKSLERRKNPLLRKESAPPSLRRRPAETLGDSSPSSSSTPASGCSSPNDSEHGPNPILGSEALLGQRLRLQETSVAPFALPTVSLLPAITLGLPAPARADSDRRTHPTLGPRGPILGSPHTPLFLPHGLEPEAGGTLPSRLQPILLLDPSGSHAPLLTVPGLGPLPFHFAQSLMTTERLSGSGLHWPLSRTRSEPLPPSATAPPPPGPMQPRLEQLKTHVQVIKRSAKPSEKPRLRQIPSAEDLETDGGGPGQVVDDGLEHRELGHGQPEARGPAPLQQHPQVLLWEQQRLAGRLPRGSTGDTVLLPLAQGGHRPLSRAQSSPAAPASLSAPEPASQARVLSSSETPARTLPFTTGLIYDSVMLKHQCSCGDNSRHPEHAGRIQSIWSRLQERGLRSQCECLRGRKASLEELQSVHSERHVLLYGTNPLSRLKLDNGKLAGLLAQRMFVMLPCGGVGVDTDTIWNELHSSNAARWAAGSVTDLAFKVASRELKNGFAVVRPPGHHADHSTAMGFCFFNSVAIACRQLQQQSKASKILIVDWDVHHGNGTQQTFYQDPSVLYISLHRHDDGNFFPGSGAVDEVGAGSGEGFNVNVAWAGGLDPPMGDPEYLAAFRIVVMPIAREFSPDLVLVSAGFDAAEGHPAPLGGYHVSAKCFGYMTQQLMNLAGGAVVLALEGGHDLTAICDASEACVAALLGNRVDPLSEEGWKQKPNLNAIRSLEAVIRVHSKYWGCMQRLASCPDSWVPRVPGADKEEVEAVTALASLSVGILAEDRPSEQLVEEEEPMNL

Histone deacetylase 5 = Histone deacetylase 5 (Homo sapiens, UniProt Q9UQL6); test: Inhibition of human HDAC5 using Boc-Lys (tri-fluoroacetyl)-AMC as substrate incubated for 1 hr followed by substrate addition and further incubated for 2 hrs by fluorescence assay
Sequence of Histone deacetylase 5 (Q9UQL6 whole entry): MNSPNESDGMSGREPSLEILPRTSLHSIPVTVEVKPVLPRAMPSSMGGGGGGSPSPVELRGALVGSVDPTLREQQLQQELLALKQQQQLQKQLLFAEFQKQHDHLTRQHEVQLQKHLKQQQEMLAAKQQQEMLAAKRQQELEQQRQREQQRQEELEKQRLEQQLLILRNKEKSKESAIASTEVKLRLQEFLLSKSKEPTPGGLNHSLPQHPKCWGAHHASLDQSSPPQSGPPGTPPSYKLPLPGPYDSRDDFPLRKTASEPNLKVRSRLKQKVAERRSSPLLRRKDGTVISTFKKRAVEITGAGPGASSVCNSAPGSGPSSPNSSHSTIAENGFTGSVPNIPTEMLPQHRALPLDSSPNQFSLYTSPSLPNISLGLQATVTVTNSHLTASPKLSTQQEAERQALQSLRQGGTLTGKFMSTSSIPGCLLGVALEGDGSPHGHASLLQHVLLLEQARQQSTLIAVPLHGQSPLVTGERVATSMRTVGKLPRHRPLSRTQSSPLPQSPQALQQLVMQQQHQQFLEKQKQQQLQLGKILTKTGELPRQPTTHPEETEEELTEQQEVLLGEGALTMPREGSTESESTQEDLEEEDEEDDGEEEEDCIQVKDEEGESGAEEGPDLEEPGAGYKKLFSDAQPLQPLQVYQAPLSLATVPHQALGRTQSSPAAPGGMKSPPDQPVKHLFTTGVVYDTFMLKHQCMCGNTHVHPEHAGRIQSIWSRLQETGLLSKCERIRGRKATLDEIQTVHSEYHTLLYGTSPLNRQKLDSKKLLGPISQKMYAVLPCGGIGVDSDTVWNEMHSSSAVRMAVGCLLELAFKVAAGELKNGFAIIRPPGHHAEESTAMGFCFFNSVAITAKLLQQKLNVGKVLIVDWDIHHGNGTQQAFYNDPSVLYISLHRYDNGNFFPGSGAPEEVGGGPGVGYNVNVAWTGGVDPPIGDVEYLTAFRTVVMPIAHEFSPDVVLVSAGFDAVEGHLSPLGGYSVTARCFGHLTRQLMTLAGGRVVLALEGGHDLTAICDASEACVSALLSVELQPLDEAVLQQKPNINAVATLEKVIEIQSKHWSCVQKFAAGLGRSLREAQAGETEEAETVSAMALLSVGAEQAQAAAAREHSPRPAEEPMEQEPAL

Aminopeptidase N = molecular target: T3, Aminopeptidase N (Sus scrofa, UniProt P15145); test: Inhibition of porcine kidney CD13 using L-leucine-p-nitroanilide as substrate incubated for 30 mins by microplate reader analysis
T3 sequence (P15145 whole entry): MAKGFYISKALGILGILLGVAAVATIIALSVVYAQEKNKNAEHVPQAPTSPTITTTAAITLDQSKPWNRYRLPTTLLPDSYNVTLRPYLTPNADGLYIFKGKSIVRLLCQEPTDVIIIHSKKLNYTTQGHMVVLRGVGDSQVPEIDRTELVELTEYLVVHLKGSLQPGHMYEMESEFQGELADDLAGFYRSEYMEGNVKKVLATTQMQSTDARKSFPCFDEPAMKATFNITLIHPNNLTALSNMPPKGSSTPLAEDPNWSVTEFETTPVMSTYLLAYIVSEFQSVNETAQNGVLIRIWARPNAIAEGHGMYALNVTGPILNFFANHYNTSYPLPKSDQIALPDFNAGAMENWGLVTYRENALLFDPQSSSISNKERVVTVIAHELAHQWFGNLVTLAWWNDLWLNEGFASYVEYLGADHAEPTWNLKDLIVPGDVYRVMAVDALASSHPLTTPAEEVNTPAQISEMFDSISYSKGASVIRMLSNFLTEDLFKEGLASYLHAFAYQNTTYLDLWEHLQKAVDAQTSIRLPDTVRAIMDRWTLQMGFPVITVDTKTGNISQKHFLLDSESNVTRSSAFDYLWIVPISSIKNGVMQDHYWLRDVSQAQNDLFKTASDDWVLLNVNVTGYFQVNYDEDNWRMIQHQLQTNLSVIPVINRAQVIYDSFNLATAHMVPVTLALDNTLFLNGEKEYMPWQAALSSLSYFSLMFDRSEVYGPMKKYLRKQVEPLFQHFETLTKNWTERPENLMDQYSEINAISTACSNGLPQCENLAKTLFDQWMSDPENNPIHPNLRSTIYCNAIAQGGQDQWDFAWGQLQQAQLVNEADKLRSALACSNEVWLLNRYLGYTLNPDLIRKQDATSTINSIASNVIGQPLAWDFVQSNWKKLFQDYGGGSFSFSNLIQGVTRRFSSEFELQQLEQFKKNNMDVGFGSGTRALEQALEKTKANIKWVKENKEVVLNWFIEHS

Histone deacetylase 9 = Histone deacetylase 9 (Homo sapiens, UniProt Q9UKV0); test: Inhibition of human HDAC9 using Boc-Lys (tri-fluoroacetyl)-AMC as substrate incubated for 1 hr followed by substrate addition and further incubated for 2 hrs by fluorescence assay
Sequence of Histone deacetylase 9 (Q9UKV0 whole entry): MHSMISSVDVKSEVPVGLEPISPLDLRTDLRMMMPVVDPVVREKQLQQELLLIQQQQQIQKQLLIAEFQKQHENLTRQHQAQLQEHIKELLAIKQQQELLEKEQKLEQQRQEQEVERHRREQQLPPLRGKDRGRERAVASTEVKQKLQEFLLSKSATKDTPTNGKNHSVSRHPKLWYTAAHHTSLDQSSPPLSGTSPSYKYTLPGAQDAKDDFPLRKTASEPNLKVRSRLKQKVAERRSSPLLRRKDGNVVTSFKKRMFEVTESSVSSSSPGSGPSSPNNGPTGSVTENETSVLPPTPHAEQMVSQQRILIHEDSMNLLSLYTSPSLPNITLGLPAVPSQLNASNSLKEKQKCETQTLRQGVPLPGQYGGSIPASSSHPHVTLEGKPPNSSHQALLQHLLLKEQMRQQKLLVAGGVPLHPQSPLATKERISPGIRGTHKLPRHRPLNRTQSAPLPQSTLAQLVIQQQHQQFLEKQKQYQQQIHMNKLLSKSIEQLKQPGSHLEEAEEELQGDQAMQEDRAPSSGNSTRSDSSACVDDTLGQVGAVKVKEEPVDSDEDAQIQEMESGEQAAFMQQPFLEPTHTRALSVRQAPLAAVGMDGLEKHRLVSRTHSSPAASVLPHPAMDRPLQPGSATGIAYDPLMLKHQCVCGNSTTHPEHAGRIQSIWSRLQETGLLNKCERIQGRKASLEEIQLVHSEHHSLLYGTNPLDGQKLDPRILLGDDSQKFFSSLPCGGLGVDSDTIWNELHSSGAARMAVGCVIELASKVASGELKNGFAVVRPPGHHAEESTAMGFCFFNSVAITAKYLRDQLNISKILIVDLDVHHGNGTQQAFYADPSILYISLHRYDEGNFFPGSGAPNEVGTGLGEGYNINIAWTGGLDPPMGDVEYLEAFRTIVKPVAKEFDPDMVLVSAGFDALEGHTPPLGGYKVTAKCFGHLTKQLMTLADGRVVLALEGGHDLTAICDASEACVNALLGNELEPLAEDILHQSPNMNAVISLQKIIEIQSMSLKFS

Sequence of Histone deacetylase 3 (O15379 whole entry): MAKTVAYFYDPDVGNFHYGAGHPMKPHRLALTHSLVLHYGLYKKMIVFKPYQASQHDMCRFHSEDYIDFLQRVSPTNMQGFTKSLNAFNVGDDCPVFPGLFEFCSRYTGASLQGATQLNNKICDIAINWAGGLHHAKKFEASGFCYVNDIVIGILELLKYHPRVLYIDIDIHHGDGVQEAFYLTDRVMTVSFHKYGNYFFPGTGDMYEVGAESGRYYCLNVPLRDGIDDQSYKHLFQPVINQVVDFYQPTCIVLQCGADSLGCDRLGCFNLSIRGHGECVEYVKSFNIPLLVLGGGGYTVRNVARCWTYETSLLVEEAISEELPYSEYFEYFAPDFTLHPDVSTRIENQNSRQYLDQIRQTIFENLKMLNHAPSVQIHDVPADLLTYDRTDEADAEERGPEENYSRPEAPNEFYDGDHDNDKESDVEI

IC50 (Histone deacetylase 3): 0.02 µM
IC50 (Histone deacetylase 11): 1.24 µM
IC50 (Histone deacetylase 7): > 10 µM
IC50 (Histone deacetylase 5): > 10 µM
IC50 (Aminopeptidase N): 0.53 µM
IC50 (Histone deacetylase 9): > 10 µM
SMILES: CCCNNC(=O)c1ccc(CNC(=O)[C@H](CC(C)C)NC(=O)[C@@H](O)[C@H](N)Cc2ccccc2)cc1.Cl
